Results published in patent US20230220021A1, “CYCLIC PEPTIDE INHIBITORS OF PSD-95 AND USES THEREOF” (University of Copenhagen, priority 2020, published 2023).
Where a SMILES comes first, the peptide text is derived from it. [ ]: non-standard residue; d: D form.

These compounds were tested against T1, PSD-95-PDZ2 (Homo sapiens, UniProt P78352) (assay: Fluorescence polarization (FP) competition assay against cyclic nNOS TAMRA probe). Conditions: FP competition, cyclic nNOS TAMRA probe; mean of triplicates; N.B. = not binding; read-out: Ki.
T1 construct: 7xHis (N); made in house; host or cells: Escherichia coli B21 pLys (for the mutants, 'as previously described')
Assay type: binding

T1 sequence (P78352 160-246 limits assumed): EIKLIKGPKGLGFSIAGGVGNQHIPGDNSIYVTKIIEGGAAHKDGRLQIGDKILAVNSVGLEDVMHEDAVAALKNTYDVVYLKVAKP

Ki	SMILES
0.99 µM	CC[C@H](C)[C@@H]1NC(=O)[C@H]([C@@H](C)O)NC(=O)[C@H](CCCCN)NC(=O)[C@@H]2CCCN2C(=O)[C@H]([C@@H](C)O)NC(=O)CNC(=O)[C@H](CCCNC(=N)N)NC(=O)CNC(=O)[C@H]([C@@H](C)O)NC(=O)[C@H](Cc2ccccc2)NC(=O)[C@H]([C@@H](C)O)NC(=O)[C@H]([C@@H](C)O)NC(=O)[C@H](CCC(=O)O)NC(=O)[C@H](CC(C)C)NC(=O)[C@H](Cc2c[nH]cn2)NC(=O)[C@H]([C@@H](C)O)NC(=O)[C@H](CCC(N)=O)NC(=O)CNC(=O)[C@H]2CCCN2C(=O)[C@H](CCC(N)=O)NC(=O)[C@H]([C@@H](C)O)NC(=O)[C@H](C(C)C)NC(=O)[C@H](CCCNC(=N)N)NC1=O [compound 34] (cyclo(THLETTFTGRGTPKTIRVTQ[dP]GQ))
1.76 µM	CC(C)C[C@@H]1NC(=O)[C@H](Cc2c[nH]cn2)NC(=O)[C@H]([C@@H](C)O)NC(=O)[C@H](CCC(N)=O)NC(=O)CNC(=O)[C@H]2CCCN2C(=O)[C@H](CCC(N)=O)NC(=O)[C@H]([C@@H](C)O)NC(=O)[C@H](C(C)C)NC(=O)[C@H](CCCNC(=N)N)NC(=O)[C@H](CCCNC(=N)N)NC(=O)[C@H]([C@@H](C)O)NC(=O)[C@H](CCCCN)NC(=O)[C@@H]2CCCN2C(=O)[C@H]([C@@H](C)O)NC(=O)CNC(=O)[C@H](CC(=O)O)NC(=O)CNC(=O)[C@H]([C@@H](C)O)NC(=O)[C@H](Cc2ccccc2)NC(=O)[C@H]([C@@H](C)O)NC(=O)[C@H]([C@@H](C)O)NC(=O)[C@H](CCC(=O)O)NC1=O [compound 41] (cyclo(THLETTFTGDGTPKTRRVTQ[dP]GQ))

Same assay, conditions: FP inhibition constant normalized to WT value

Relative Ki (Ki mut/Ki WT)	SMILES
1.91	CC[C@H](C)[C@@H]1NC(=O)[C@H]([C@@H](C)O)NC(=O)[C@H](CCCCN)NC(=O)[C@@H]2CCCN2C(=O)[C@H]([C@@H](C)O)NC(=O)CNC(=O)[C@H](CCCCN)NC(=O)CNC(=O)[C@H]([C@@H](C)O)NC(=O)[C@H](Cc2ccccc2)NC(=O)[C@H]([C@@H](C)O)NC(=O)[C@H]([C@@H](C)O)NC(=O)[C@H](CCC(=O)O)NC(=O)[C@H](CC(C)C)NC(=O)[C@H](Cc2c[nH]cn2)NC(=O)[C@H]([C@@H](C)O)NC(=O)[C@H](CCC(N)=O)NC(=O)CNC(=O)[C@H]2CCCN2C(=O)[C@H](CCC(N)=O)NC(=O)[C@H]([C@@H](C)O)NC(=O)[C@H](C(C)C)NC(=O)[C@H](CCCNC(=N)N)NC1=O [compound 28] (cyclo(THLETTFTGKGTPKTIRVTQ[dP]GQ))
1.60	CC[C@H](C)[C@@H]1NC(=O)[C@H]([C@@H](C)O)NC(=O)[C@H](CCCCN)NC(=O)[C@@H]2CCCN2C(=O)[C@H]([C@@H](C)O)NC(=O)CNC(=O)[C@@H]2CCCN2C(=O)CNC(=O)[C@H]([C@@H](C)O)NC(=O)[C@H](Cc2ccccc2)NC(=O)[C@H]([C@@H](C)O)NC(=O)[C@H]([C@@H](C)O)NC(=O)[C@H](CCC(=O)O)NC(=O)[C@H](CC(C)C)NC(=O)[C@H](Cc2c[nH]cn2)NC(=O)[C@H]([C@@H](C)O)NC(=O)[C@H](CCC(N)=O)NC(=O)CNC(=O)[C@H]2CCCN2C(=O)[C@H](CCC(N)=O)NC(=O)[C@H]([C@@H](C)O)NC(=O)[C@H](C(C)C)NC(=O)[C@H](CCCNC(=N)N)NC1=O [compound 29] (cyclo(THLETTFTGPGTPKTIRVTQ[dP]GQ))
0.77	CC[C@H](C)[C@@H]1NC(=O)[C@H]([C@@H](C)O)NC(=O)[C@H](CCCCN)NC(=O)[C@@H]2CCCN2C(=O)[C@@H]2CCCN2C(=O)CNC(=O)[C@H](CC(=O)O)NC(=O)CNC(=O)[C@H]([C@@H](C)O)NC(=O)[C@H](Cc2ccccc2)NC(=O)[C@H]([C@@H](C)O)NC(=O)[C@H]([C@@H](C)O)NC(=O)[C@H](CCC(=O)O)NC(=O)[C@H](CC(C)C)NC(=O)[C@H](Cc2c[nH]cn2)NC(=O)[C@H]([C@@H](C)O)NC(=O)[C@H](CCC(N)=O)NC(=O)CNC(=O)[C@H]2CCCN2C(=O)[C@H](CCC(N)=O)NC(=O)[C@H]([C@@H](C)O)NC(=O)[C@H](C(C)C)NC(=O)[C@H](CCCNC(=N)N)NC1=O [compound 31] (cyclo(THLETTFTGDGPPKTIRVTQ[dP]GQ))
0.66	CC[C@H](C)[C@@H]1NC(=O)[C@H]([C@@H](C)O)NC(=O)[C@H](CCCCN)NC(=O)[C@@H]2CCCN2C(=O)[C@H]([C@@H](C)O)NC(=O)CNC(=O)[C@H](CCCNC(=N)N)NC(=O)CNC(=O)[C@H]([C@@H](C)O)NC(=O)[C@H](Cc2ccccc2)NC(=O)[C@H]([C@@H](C)O)NC(=O)[C@H]([C@@H](C)O)NC(=O)[C@H](CCC(=O)O)NC(=O)[C@H](CC(C)C)NC(=O)[C@H](Cc2c[nH]cn2)NC(=O)[C@H]([C@@H](C)O)NC(=O)[C@H](CCC(N)=O)NC(=O)CNC(=O)[C@H]2CCCN2C(=O)[C@H](CCC(N)=O)NC(=O)[C@H]([C@@H](C)O)NC(=O)[C@H](C(C)C)NC(=O)[C@H](CCCNC(=N)N)NC1=O [compound 34] (cyclo(THLETTFTGRGTPKTIRVTQ[dP]GQ))
0.50	CC[C@H](C)[C@@H]1NC(=O)[C@H]([C@@H](C)O)NC(=O)[C@H](CCCCN)NC(=O)[C@@H]2CCCN2C(=O)[C@H]([C@@H](C)O)NC(=O)[C@H](CCCNC(=N)N)NC(=O)[C@H](CC(=O)O)NC(=O)CNC(=O)[C@H]([C@@H](C)O)NC(=O)[C@H](Cc2ccccc2)NC(=O)[C@H]([C@@H](C)O)NC(=O)[C@H]([C@@H](C)O)NC(=O)[C@H](CCC(=O)O)NC(=O)[C@H](CC(C)C)NC(=O)[C@H](Cc2c[nH]cn2)NC(=O)[C@H]([C@@H](C)O)NC(=O)[C@H](CCC(N)=O)NC(=O)CNC(=O)[C@H]2CCCN2C(=O)[C@H](CCC(N)=O)NC(=O)[C@H]([C@@H](C)O)NC(=O)[C@H](C(C)C)NC(=O)[C@H](CCCNC(=N)N)NC1=O [compound 35] (cyclo(THLETTFTGDRTPKTIRVTQ[dP]GQ))
0.69	CC[C@H](C)[C@@H]1NC(=O)[C@H]([C@@H](C)O)NC(=O)[C@H](CCCCN)NC(=O)[C@@H]2CCCN2C(=O)[C@H](Cc2c[nH]c3ccccc23)NC(=O)CNC(=O)[C@H](CC(=O)O)NC(=O)CNC(=O)[C@H]([C@@H](C)O)NC(=O)[C@H](Cc2ccccc2)NC(=O)[C@H]([C@@H](C)O)NC(=O)[C@H]([C@@H](C)O)NC(=O)[C@H](CCC(=O)O)NC(=O)[C@H](CC(C)C)NC(=O)[C@H](Cc2c[nH]cn2)NC(=O)[C@H]([C@@H](C)O)NC(=O)[C@H](CCC(N)=O)NC(=O)CNC(=O)[C@H]2CCCN2C(=O)[C@H](CCC(N)=O)NC(=O)[C@H]([C@@H](C)O)NC(=O)[C@H](C(C)C)NC(=O)[C@H](CCCNC(=N)N)NC1=O [compound 36] (cyclo(THLETTFTGDGWPKTIRVTQ[dP]GQ))
0.91	CC[C@H](C)[C@@H]1NC(=O)[C@H]([C@@H](C)O)NC(=O)[C@H](CCCCN)NC(=O)[C@@H]2CCCN2C(=O)[C@H](CS)NC(=O)CNC(=O)[C@H](CC(=O)O)NC(=O)CNC(=O)[C@H]([C@@H](C)O)NC(=O)[C@H](Cc2ccccc2)NC(=O)[C@H]([C@@H](C)O)NC(=O)[C@H]([C@@H](C)O)NC(=O)[C@H](CCC(=O)O)NC(=O)[C@H](CC(C)C)NC(=O)[C@H](Cc2c[nH]cn2)NC(=O)[C@H]([C@@H](C)O)NC(=O)[C@H](CCC(N)=O)NC(=O)CNC(=O)[C@H]2CCCN2C(=O)[C@H](CCC(N)=O)NC(=O)[C@H]([C@@H](C)O)NC(=O)[C@H](C(C)C)NC(=O)[C@H](CCCNC(=N)N)NC1=O [compound 38] (cyclo(THLETTFTGDGCPKTIRVTQ[dP]GQ))
12.59	CC[C@H](C)[C@@H]1NC(=O)[C@H](CC(N)=O)NC(=O)[C@H](CCCCN)NC(=O)[C@@H]2CCCN2C(=O)[C@H]([C@@H](C)O)NC(=O)CNC(=O)[C@H](CC(=O)O)NC(=O)CNC(=O)[C@H]([C@@H](C)O)NC(=O)[C@H](Cc2ccccc2)NC(=O)[C@H]([C@@H](C)O)NC(=O)[C@H]([C@@H](C)O)NC(=O)[C@H](CCC(=O)O)NC(=O)[C@H](CC(C)C)NC(=O)[C@H](Cc2c[nH]cn2)NC(=O)[C@H]([C@@H](C)O)NC(=O)[C@H](CCC(N)=O)NC(=O)CNC(=O)[C@H]2CCCN2C(=O)[C@H](CCC(N)=O)NC(=O)[C@H]([C@@H](C)O)NC(=O)[C@H](C(C)C)NC(=O)[C@H](CCCNC(=N)N)NC1=O [compound 39] (cyclo(THLETTFTGDGTPKNIRVTQ[dP]GQ))
0.34	CC[C@H](C)[C@@H]1NC(=O)[C@H]([C@@H](C)O)NC(=O)[C@H](CCCCN)NC(=O)[C@@H]2CCCN2C(=O)[C@H](CC(N)=O)NC(=O)CNC(=O)[C@H](CC(=O)O)NC(=O)CNC(=O)[C@H]([C@@H](C)O)NC(=O)[C@H](Cc2ccccc2)NC(=O)[C@H]([C@@H](C)O)NC(=O)[C@H]([C@@H](C)O)NC(=O)[C@H](CCC(=O)O)NC(=O)[C@H](CC(C)C)NC(=O)[C@H](Cc2c[nH]cn2)NC(=O)[C@H]([C@@H](C)O)NC(=O)[C@H](CCC(N)=O)NC(=O)CNC(=O)[C@H]2CCCN2C(=O)[C@H](CCC(N)=O)NC(=O)[C@H]([C@@H](C)O)NC(=O)[C@H](C(C)C)NC(=O)[C@H](CCCNC(=N)N)NC1=O [compound 40] (cyclo(THLETTFTGDGNPKTIRVTQ[dP]GQ))
1.17	CC(C)C[C@@H]1NC(=O)[C@H](Cc2c[nH]cn2)NC(=O)[C@H]([C@@H](C)O)NC(=O)[C@H](CCC(N)=O)NC(=O)CNC(=O)[C@H]2CCCN2C(=O)[C@H](CCC(N)=O)NC(=O)[C@H]([C@@H](C)O)NC(=O)[C@H](C(C)C)NC(=O)[C@H](CCCNC(=N)N)NC(=O)[C@H](CCCNC(=N)N)NC(=O)[C@H]([C@@H](C)O)NC(=O)[C@H](CCCCN)NC(=O)[C@@H]2CCCN2C(=O)[C@H]([C@@H](C)O)NC(=O)CNC(=O)[C@H](CC(=O)O)NC(=O)CNC(=O)[C@H]([C@@H](C)O)NC(=O)[C@H](Cc2ccccc2)NC(=O)[C@H]([C@@H](C)O)NC(=O)[C@H]([C@@H](C)O)NC(=O)[C@H](CCC(=O)O)NC1=O [compound 41] (cyclo(THLETTFTGDGTPKTRRVTQ[dP]GQ))
1.07	CC(C)C[C@@H]1NC(=O)[C@H](Cc2c[nH]cn2)NC(=O)[C@H]([C@@H](C)O)NC(=O)[C@H](CCC(N)=O)NC(=O)CNC(=O)[C@H]2CCCN2C(=O)[C@H](CCC(N)=O)NC(=O)[C@H]([C@@H](C)O)NC(=O)[C@H](C(C)C)NC(=O)[C@H](CCCNC(=N)N)NC(=O)[C@H](Cc2ccc(O)cc2)NC(=O)[C@H]([C@@H](C)O)NC(=O)[C@H](CCCCN)NC(=O)[C@@H]2CCCN2C(=O)[C@H]([C@@H](C)O)NC(=O)CNC(=O)[C@H](CC(=O)O)NC(=O)CNC(=O)[C@H]([C@@H](C)O)NC(=O)[C@H](Cc2ccccc2)NC(=O)[C@H]([C@@H](C)O)NC(=O)[C@H]([C@@H](C)O)NC(=O)[C@H](CCC(=O)O)NC1=O [compound 42] (cyclo(THLETTFTGDGTPKTYRVTQ[dP]GQ))
1.13	CC[C@H](C)[C@@H]1NC(=O)[C@H]([C@@H](C)O)NC(=O)[C@H](CCCCN)NC(=O)[C@@H]2CCCN2C(=O)[C@H]([C@@H](C)O)NC(=O)CNC(=O)[C@H](CC(=O)O)NC(=O)CNC(=O)[C@H]([C@@H](C)O)NC(=O)[C@H](Cc2ccccc2)NC(=O)[C@H]([C@@H](C)O)NC(=O)[C@H]([C@@H](C)O)NC(=O)[C@H](CCC(=O)O)NC(=O)[C@H](CC(C)C)NC(=O)[C@H](Cc2c[nH]cn2)NC(=O)[C@H]([C@@H](C)O)NC(=O)[C@H](CCC(N)=O)NC(=O)CNC(=O)[C@H]2CCCN2C(=O)[C@H](CCC(N)=O)NC(=O)[C@H]([C@@H](C)O)NC(=O)[C@H](CCCNC(=N)N)NC(=O)[C@H](CCCNC(=N)N)NC1=O [compound 43] (cyclo(THLETTFTGDGTPKTIRRTQ[dP]GQ))
